Test results from US20240166639A1, “POTENT AND SELECTIVE COMPOUNDS AS SEROTONIN 1B RECEPTOR MODULATORS” (LEUKOS BIOTECH, S.L., priority 2020, published 2024).
Counter-ions that a name gives are not always drawn.

Assays:
HL-60 = assay: Cell viability assay, AML cell line HL-60; type: cell-based; conditions: 48 h treatment, live cells by flow cytometry
Method: (§1) 0.15×10^6 AML cell lines (HL-60 or MonoMac-1) per mL were cultured in completed RPMI medium, supplemented with 10% Fetal bovine serum (FBS). Compounds were added to the medium at the concentration indicated (0.1, 1 and 10 μM), while controls were treated with equivalent concentration of vehicle (DMSO). Primary validation screenings were analyzed after 72 h of treatment, EC50 was determined upon 48 h treatments. Cells were stained with the live-dead discrimination dye 7-aminoactinomycin D (7-AAD) and Hoechst 33342 and acquired in a flow cytometer, with a volumetric counting. Live cells were discriminated based on a discrete FSC-SSC profile, 7-AAD negativity and dim positivity to Hoechst 33342. EC50 was calculated with the Prism GraphPad software.

MonoMac-1 = assay: Cell viability assay, AML cell line MonoMac-1; type: cell-based; conditions: 48 h treatment, live cells by flow cytometry
Method: as §1

human 5-HT2A receptor = human 5-HT2A receptor (Homo sapiens (Human), UniProt P28223); assay: Competition binding in human 5-HT2A receptor; conditions: [3H]-Ketanserin, CHO-5-HT2A membranes; read-out: h5-HT2A Ki
Method: Serotonin 5-HT2A receptor competition binding experiments were carried out in a polypropilene 96-well plate. In each well was incubated 80 μg of membranes from CHO-5-HT2A cell line prepared in the laboratory (protein concentration=4337 μg/ml), 1 nM [^3H]-Ketanserin (47.3 Ci/mmol, 1 mCi/ml, Perkin Elmer NET791250UC) and compounds studied and standard. Non-specific binding was determined in the presence of Methysergide 1 μM (Sigma M137). The reaction mixture (Vt: 250 μl/well) was incubated at 37° C. for 30 min, 200 μL was transfered to GF/B 96-well plate (Millipore, Madrid, Spain) pretreated with 0.5% of PEI and treated with binding buffer (Tris-HCl 50 mM, pH=7.4), after was filtered and washed six times with 250 μl wash buffer (Tris-HCl 50 mM, pH=6.6), before measuring in a microplate beta scintillation counter (Microbeta Trilux, PerkinElmer, Madrid, Spain).
The raw radioactivity data is adjusted to a logistic regression of 4 parameters using GraphPad Prism software, from the specific junction the value of IC50 is obtained. From the IC50 the Ki is calculated according to the following formula: […]
Being: • IC50: inhibitory concentration, • D: real concentration of radioligand and • Kd: dissociation constant (affinity of radioligand to the receptor).

Sequence of human 5-HT2A receptor (P28223 whole entry): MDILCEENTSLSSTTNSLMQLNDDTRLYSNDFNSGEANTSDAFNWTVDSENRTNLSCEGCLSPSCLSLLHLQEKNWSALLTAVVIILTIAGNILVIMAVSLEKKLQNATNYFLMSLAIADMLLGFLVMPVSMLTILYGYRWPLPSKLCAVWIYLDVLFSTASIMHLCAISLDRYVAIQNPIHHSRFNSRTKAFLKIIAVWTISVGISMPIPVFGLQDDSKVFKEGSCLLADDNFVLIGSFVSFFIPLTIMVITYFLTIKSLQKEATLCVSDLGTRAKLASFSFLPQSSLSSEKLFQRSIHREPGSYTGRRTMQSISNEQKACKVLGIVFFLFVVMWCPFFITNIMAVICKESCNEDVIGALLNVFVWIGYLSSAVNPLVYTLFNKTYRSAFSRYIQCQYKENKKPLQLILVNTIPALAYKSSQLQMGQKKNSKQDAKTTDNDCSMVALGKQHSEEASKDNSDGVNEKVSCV

## Cc1nc(-c2ccc(-c3ccc(C(=O)Nc4ccc(Br)c(OCCN(C)C)c4)cn3)c(C3CC3)c2)no1 [Example 1, N-(4-bromo-3-(2-(dimethylamino)ethoxy)phenyl)-6-(2-cyclopropyl-4-(5-methyl-1,2,4-oxadiazol-3-yl)phenyl)nicotinamide]
HL-60; Homo sapiens, HL-60
  EC50: 1000 nM
MonoMac-1; Mono-Mac-1
  EC50: 790 nM

## Cc1nc(-c2ccc(-c3ccc(C(=O)Nc4ccc(Br)c(OCCN(C)C)c4)cn3)c(F)c2)no1 [Example 2, N-(4-bromo-3-(2-(dimethylamino)ethoxy)phenyl)-6-(2-fluoro-4-(5-methyl-1,2,4-oxadiazol-3-yl)phenyl)nicotinamide]
HL-60; Homo sapiens, HL-60
  EC50: 580 nM
MonoMac-1; Mono-Mac-1
  EC50: 1110 nM

## Cc1nc(-c2ccc(-c3ccc(C(=O)Nc4ccc(Br)c(OCCN(C)C)c4)cn3)c(Cl)c2)no1 [Example 3, N-(4-bromo-3-(2-(dimethylamino)ethoxy)phenyl)-6-(2-chloro-4-(5-methyl-1,2,4-oxadiazol-3-yl)phenyl)nicotinamide]
HL-60; Homo sapiens, HL-60
  EC50: 1620 nM
MonoMac-1; Mono-Mac-1
  EC50: 870 nM

## COc1cc(-c2noc(C)n2)ccc1-c1ccc(C(=O)Nc2ccc(Br)c(OCCN(C)C)c2)cn1 [Example 5, N-(4-bromo-3-(2-(dimethylamino)ethoxy)phenyl)-6-(2-methoxy-4-(5-methyl-1,2,4-oxadiazol-3-yl)phenyl)nicatinamide]
HL-60
  EC50: 1180 nM
MonoMac-1
  EC50: 1140 nM

## Cc1nc(-c2ccc(-c3ccc(C(=O)Nc4ccc(C#N)c(OCCN(C)C)c4)cn3)c(F)c2)no1 [Example 8, N-(4-cyano-3-(2-(dimethylamino)ethoxy)phenyl)-6-(2-fluoro-4-(5-methyl-1,2,4-oxadiazol-3-yl)phenyl)nicotinamide]
HL-60; Homo sapiens, HL-60
  EC50: 2810 nM
MonoMac-1; Mono-Mac-1
  EC50: 2000 nM

## Cc1nc(-c2ccc(-c3ccc(C(=O)Nc4ccc(C#N)c(OCCN(C)C)c4)cn3)c(Cl)c2)no1 [Example 9, 6-(2-chloro-4-(5-methyl-1,2,4-oxadiazol-3-yl)phenyl)-N-(4-cyano-3-(2-(dimethylamino)ethoxy)phenyl)nicotinamide]
HL-60; Homo sapiens, HL-60
  EC50: 990 nM
MonoMac-1; Mono-Mac-1
  EC50: 880 nM

## Cc1nc(-c2ccc(-c3ccc(C(=O)Nc4cc(OCCN(C)C)c(Br)cn4)cc3)c(F)c2)no1 [Example 16, N-(5-bromo-4-(2-(dimethylamino)ethoxy)pyridin-2-yl)-2′-fluoro-4′-(5-methyl-1,2,4-oxadiazol-3-yl)-[1,1′-biphenyl]-4-carboxamide]
HL-60; Homo sapiens, HL-60
  EC50: 1080 nM
MonoMac-1; Mono-Mac-1
  EC50: 460 nM

## Cc1nc(-c2ccc(-c3ccc(C(=O)Nc4cc(OCCN(C)C)c(Br)cn4)cc3)c(Cl)c2)no1 [Example 17, N-(5-bromo-4-(2-(dimethylamino)ethoxy)pyridin-2-yl)-2′-chloro-4′-(5-methyl-1,2,4-oxadiazol-3-yl)-[1,1′-biphenyl]-4-carboxamide]
HL-60; Homo sapiens, HL-60
  EC50: 2650 nM
MonoMac-1; Mono-Mac-1
  EC50: 1320 nM

## Cc1nc(-c2ccc(-c3ccc(C(=O)Nc4cc(OCCN(C)C)c(Br)cn4)cc3)c(C(F)(F)F)c2)no1 [Example 18, N-(5-bromo-4-(2-(dimethylamino)ethoxy)pyridin-2-yl)-4′-(5-methyl-1,2,4-oxadiazol-3-yl)-2′-(trifluoromethyl)-[1,1′-biphenyl]-4-carboxamide]
HL-60; Homo sapiens, HL-60
  EC50: 1170 nM
MonoMac-1; Mono-Mac-1
  EC50: 420 nM

## COc1cc(-c2noc(C)n2)ccc1-c1ccc(C(=O)Nc2cc(OCCN(C)C)c(C#N)cn2)cc1 [Example 25, N-(5-cyano-4-(2-(dimethylamino)ethoxy)pyridin-2-yl)-2′-methoxy-4′-(5-methyl-1,2,4-oxadiazol-3-yl)-[1,1′-biphenyl]-4-carboxamide]
HL-60; Homo sapiens, HL-60
  EC50: 2800 nM
MonoMac-1; Mono-Mac-1
  EC50: 2690 nM

## Cc1nc(-c2ccc(-c3ccc(C(=O)Nc4ccc(C#N)c(OCCN(C)C)n4)cc3)c(C3CC3)c2)no1 [Example 30, N-(5-cyano-6-(2-(dimethylamino)ethoxy)pyridin-2-yl)-2′-cyclopropyl-4′-(5-methyl-1,2,4-oxadiazol-3-yl)-[1,1′-biphenyl]-4-carboxamide]
HL-60; Homo sapiens, HL-60
  EC50: 1030 nM
MonoMac-1; Mono-Mac-1
  EC50: 2800 nM

## Cc1nc(-c2ccc(-c3ccc(C(=O)Nc4ccc(Br)c(OCCN(C)C)n4)cn3)c(C3CC3)c2)no1 [Example 51, N-(5-bromo-6-(2-(dimethylamino)ethoxy)pyridin-2-yl)-6-(2-cyclopropyl-4-(5-methyl-1,2,4-oxadiazol-3-yl)phenyl)nicotinamide]
HL-60; Homo sapiens, HL-60
  EC50: 1990 nM
MonoMac-1; Mono-Mac-1
  EC50: 1200 nM

## Cc1nc(-c2ccc(-c3ccc(C(=O)Nc4ccc(Br)c(OCCN(C)C)n4)cn3)c(F)c2)no1 [Example 52, N-(5-bromo-6-(2-(dimethylamino)ethoxy)pyridin-2-yl)-6-(2-fluoro-4-(5-methyl-1,2,4-oxadiazol-3-yl)phenyl)nicotinamide]
HL-60; Homo sapiens, HL-60
  EC50: 1030 nM
MonoMac-1; Mono-Mac-1
  EC50: 4320 nM

## Cc1nc(-c2ccc(-c3ccc(C(=O)Nc4ccc(Br)c(OCCN(C)C)n4)cn3)c(Cl)c2)no1 [Example 53, N-(5-bromo-6-(2-(dimethylamino)ethoxy)pyridin-2-yl)-6-(2-chloro-4-(5-methyl-1,2,4-oxadiazol-3-yl)phenyl)nicotinamide]
HL-60; Homo sapiens, HL-60
  EC50: 600 nM
MonoMac-1; Mono-Mac-1
  EC50: 1320 nM

## Cc1nc(-c2ccc(-c3ccc(C(=O)Nc4ccc(C#N)c(OCCN(C)C)n4)cn3)c(Cl)c2)no1 [Example 56, 6-(2-chloro-4-(5-methyl-1,2,4-oxadiazol-3-yl)pheny)-N-(5-cyano-6-(2-(dimethylamino)ethoxy)pyridin-2-yl)nicotinamide]
HL-60
  EC50: 620 nM
MonoMac-1
  EC50: 2020 nM

## Cc1nc(-c2ccc(-c3ccc(C(=O)Nc4ncc(Br)c(OCCN(C)C)n4)cn3)c(F)c2)no1 [Example 58, N-(5-bromo-4-(2-(dimethylamino)ethoxy)pyrimidin-2-yl)-6-(2-fluoro-4-(5-methyl-1,2,4-oxadiazol-3-yl)phenyl)nicotinamide]
HL-60; Homo sapiens, HL-60
  EC50: 3790 nM
MonoMac-1; Mono-Mac-1
  EC50: 2610 nM

## Cc1nc(-c2ccc(-c3ccc(NC(=O)c4ccc(C#N)c(OCCN(C)C)c4)cn3)c(Cl)c2)no1 [Example 73, N-(6-(2-chloro-4-(5-methyl-1,2,4-oxadiazol-3-yl)phenyl)pyridin-3-yl)-4-cyano-3-(2-(dimethylamino)ethoxy)benzamide]
HL-60; Homo sapiens, HL-60
  EC50: 1530 nM
MonoMac-1; Mono-Mac-1
  EC50: 3080 nM

## Cc1nc(-c2ccc(-c3ccc(C(=O)N4CCc5cc6c(cc54)C4(CCN(C)CC4)CO6)cc3)c(C)c2)no1 [SB9, 1′-Methyl-5-[[2′-methyl-4′-(5-methyl-1,2,4-oxadiazol-3-yl)biphenyl-4-yl]carbonyl]-2,3,6,7-tetrahydrospiro[furo[2,3-f]indole-3,4′-piperidine hydrochloride, reference compound]
Human 5-HT2A receptor
  Ki: 5.92 nM
HL-60; Homo sapiens, HL-60
  EC50: 4780 nM
MonoMac-1; Mono-Mac-1
  EC50: 1180 nM
